Like-named read-outs stand apart in the source and are kept apart here.
Columns and labels:
[1] = Form change on drying under vacuum (XRPD wet vs dry, thermal cycling experiments); format: physicochemical; conditions: dried at ambient temperature under vacuum for 2 h
Method: Additional solvent is added if necessary. Mixture is thermally cycled between 4° and 5° C. with 0.1° C./min cooling and heating rates and 1 h holds at 40 and 5° C. After 21 h cycling, additional solvent is added if thick slurry is observed and anti-solvent (heptane) is added if clear solution is observed. After a further 26 h thermal cycling, observations are recorded at 5° C. Material is isolated by centrifugation if necessary and analyzed by XRPD. […] XRPD analysis is repeated.

[2] = Dynamic vapour sorption (DVS) analysis; format: physicochemical
Method: Approximately 10-20 mg of sample is placed into a mesh vapour sorption balance pan and loaded into a DVS Advantage dynamic vapour sorption balance by Surface Measurement Systems. The sample is subjected to a ramping profile from 40-90% relative humidity (RH) at 10% increments, maintaining the sample at each step until a stable weight has been achieved (dm/dt 0.004%, minimum step length 30 minutes, maximum step length 500 minutes) at 25° C. After completion of the sorption cycle, the sample is dried using the same procedure to 0% RH and then a second sorption cycle back to 40% RH. Two cycles are performed. The weight change during the sorption/desorption cycles are plotted, allowing for the hygroscopic nature of the sample to be determined. XRPD analysis is then carried out on any solid retained.
A dynamic vapour sorption analysis of Crystalline Form 1 is in FIG. 4. […] There is a loss of 1.9 wt. % on the first desorption cycle. There is an uptake of 1.1 wt. % (0.3 equivalents water) on the second sorption between 0 and 90% RH, followed by a loss of about 1.25 wt. % on desportion. There is a loss of 1.2 wt. % difference from the input to the end of the experiment. […] Crystalline Form 1 remains as the bulk form.

[3] = DVS, 25° C., between 0 and 90% RH

Structure (SMILES) | form after drying [1] | HPLC-CAD Purity (% w/w) (7 day stability, 40° C./75% RH) | HPLC-CAD Purity (% w/w) (7 day stability, 80° C.) | HPLC-CAD Purity (% w/w) (7 day stability, Ambient Light) | XRPD (7 day stability, Ambient Light) | stability under stressed conditions (summary statement referring to DVS and storage data in Example 6) | uptake on the second sorption [2, 3] [wt. %] | uptake on the second sorption, equivalents water [2, 3] [equivalents water] | loss on the first desorption cycle ([2]; DVS, 25° C., first desorption cycle) [wt. %] | mass change on the first sorption cycle ([2]; DVS, 25° C., first sorption cycle) | loss on desorption after second sorption ([2]; DVS, 25° C., second desorption) | loss, difference from the input to the end of the experiment ([2]; DVS, 25° C., two cycles) [wt. %] | XRPD post-DVS ([2]; solid retained after DVS)
CC[C@H]1[C@@H](O)[C@@H]2[C@H]([C@@H](O)C[C@]3(C)[C@@H]([C@H](C)CCC(=O)O)CC[C@@H]23)[C@@]2(C)CC[C@@H](O)C[C@@H]12 [Crystalline Form 2, 3α,7α,11β-trihydroxy-6α-ethyl-5β-cholan-24-oic acid] | converts to Form 3 | – | – | – | – | – | – | – | – | – | – | – | –
CC[C@H]1[C@@H](O)[C@@H]2[C@H]([C@@H](O)C[C@]3(C)[C@@H]([C@H](C)CCC(=O)O)CC[C@@H]23)[C@@]2(C)CC[C@@H](O)C[C@@H]12 [Crystalline Form 1, 3α,7α,11β-trihydroxy-6α-ethyl-5β-cholan-24-oic acid] | – | 97.1 | 96.4 | 97.5 | 1^ | stable under stressed conditions | 1.1 | 0.3 | 1.9 | initial mass loss on the first sorption cycle before a slight uptake is observed | about 1.25 wt. % | 1.2 | slight loss of crystallinity

Reference: US20260274886A1, “CRYSTALLINE FORMS OF A FARNESOID X RECEPTOR AGONIST” (ALFASIGMA S.P.A., priority 2023, published 2026)
